Measurements published in patent publication EP0105732A2, “Histamine H2 receptor antagonists of the benzisothiazole amino and benzthiadiazine amino series” (BEECHAM GROUP PLC, priority 1982, dated 1984).
Values belong to the compound of their own block, whether it stands above or below them.

How the values were obtained:
gastric acid secretion = assay: perfused rat stomach preparation (histamine-stimulated acid secretion, anaesthetised rat); assay type: in vivo; details: bolus intravenous, maximal reduction in hydrogen-ion concentration as percentage of control, histamine infusion; for inhibition in vivo at 0.2 µmol/kg: dose 0.2 µmole/kg; for inhibition in vivo at 1 µmol/kg: dose 1 µmole/kg; for inhibition in vivo at 0.5 µmol/kg: dose 0.5 µmole/kg; for inhibition in vivo at 0.1 µmol/kg: dose 0.1 µmole/kg
Method: The ability of the compounds of the invention to modify the pH of gastric acid secretion was investigated as follows:
The modified (1) perfused stomach preparation (2) of the urethane (25% solution) anaesthetised rat, maintained at 37°C, allows the continuous measurement of pH during basal and stimulated acid secretion.
The lumen of the stomach of male Wistar rats (approximately 200 g bodyweight) was perfused, via a cannula designed to reduce the dead space of the stomach, with 5% glucose solution (37°C) at the rate of 3 ml/min. The perfusate was forced over the surface of the secretory mucosa only, the antrum being excluded. The effluent then passed over a microflow-type glass pH eletrode via a collecting funnel situated in the non- glandular forestomach.
The secretagogue histamine was administered as a constant intravenous infusion to produce a steady rate of acid secretion. Test compounds were administered in solution as bolus intravenous injections and any effect on the pH of the perfusate noted. The perfusate pH was recorded on a potentiometric recorder and anti-secretory responses were measured in terms of the maximal reduction in hydrogen-ion concentration expressed as a percentage of the control concentration.

histamine H2-receptor = molecular target: T1, histamine H2-receptor (Cavia porcellus, UniProt P47747); assay: Guinea-pig isolated atria (antagonism of histamine positive chronotropic response); assay type: cell-based
T1 construct: The atria were dissected free and mounted in a jacketed 5 ml capacity tissue bath; from tissue; host or cells: guinea-pig isolated atria
Method: This test is designed to specifically detect histamine H2-receptor antagonists. Guinea-pigs of either sex, weighing between 250 and 500 g, were killed by cervical dislocation and exsanguination. The heart was removed and placed in cold McEwens solution. The atria were dissected free and mounted in a jacketed 5 ml capacity tissue bath containing McEwens solution maintained at 32 °C and gassed with a 95% oxygen, 5% carbon dioxide gas mixture. Atrial beating was detected by an auxotonic lever and from thence recorded on a Devices MX2 hot wire pen recorder. Atrial rate was derived from the amplified force signal using a Devices Instantaneous Ratemeter and recorded on the MX2 pen recorder. […] To avoid disruption of the tissue by repeated washing, responses to cumulative concentrations of histamine were obtained in the absence (control) and then presence of various concentrations of test compounds. The ability to antagonise histamine mediated positive chronotropic responses of this tissue is believed to be specific for H2-receptor antagonists. Such activity was assessed by examining the ability of test compounds to shift to the right the plotted concentration/response curves to histamine.

[1] = Concentration 7.5 x 10^-8 Molar, 0.075 µM
[2] = Concentration 5 x 10^-7 Molar, 0.5 µM
[3] = Concentration 2.5 x 10^-7 Molar, 0.25 µM

T1 sequence (P47747 whole entry): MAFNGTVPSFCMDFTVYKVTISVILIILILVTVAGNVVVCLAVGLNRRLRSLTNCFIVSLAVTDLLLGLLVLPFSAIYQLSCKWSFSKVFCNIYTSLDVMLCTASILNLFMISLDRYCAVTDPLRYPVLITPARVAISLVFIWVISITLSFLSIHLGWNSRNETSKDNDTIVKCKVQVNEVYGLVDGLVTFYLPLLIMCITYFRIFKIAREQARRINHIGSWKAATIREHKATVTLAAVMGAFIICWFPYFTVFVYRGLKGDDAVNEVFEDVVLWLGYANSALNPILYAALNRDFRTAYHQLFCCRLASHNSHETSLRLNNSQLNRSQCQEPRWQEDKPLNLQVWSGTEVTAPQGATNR

Activity (Decrease in Histamine Potency) (histamine H2-receptor; Concentration 7.5 x 10^-7 Molar, 0.75 µM): Active
SMILES: CN(C)Cc1ccc(CSCCNC2=NS(=O)(=O)c3cccc([N+](=O)[O-])c32)o1 [Example 1, N-[2-(5-dimethylaminomethylfuran-2-ylmethylthio)ethyl]4-nitro-1,2-benzoisothiazole-3-amine-1,1-dioxide]
inhibition in vivo at 0.2 µmol/kg (gastric acid secretion): 87%

Activity (Decrease in Histamine Potency) (histamine H2-receptor; [1]): Active
SMILES: CN(C)Cc1ccc(CSCCNC2=NS(=O)(=O)c3cccc(N)c32)o1 [Example 2, N^3-[2-(5-dimethylaminomethylfuran-2-ylmethylthio)ethyl]1,2-benzoisothiazole-3,4-diamine-1,1-dioxide]
inhibition in vivo at 0.2 µmol/kg (gastric acid secretion): 100%

Activity (Decrease in Histamine Potency) (histamine H2-receptor; [2]): Active
SMILES: CN(C)Cc1ccc(CSCCNC2=NS(=O)(=O)c3ccccc32)o1 [Example 3, N-[2-(5-dimethylaminomethylfuran-2-ylmethylthio)ethyl]-1,2-benzoisothiazole-3-amine-l,1-dioxide]
inhibition in vivo at 1 µmol/kg (gastric acid secretion): 100%

SMILES: CN(C)Cc1ccc(CSCCNC2=NS(=O)(=O)c3ccc([N+](=O)[O-])cc32)o1 [Example 5, N-[2-(5-dimethylaminomethylfuran-2-ylmethylthio)ethyl] 5-nitro-1,2-benzoisothizaole-3-amine-1,1-dioxide]
inhibition in vivo at 2 µmol/kg (gastric acid secretion; dose 2 µmole/kg): 80%

Activity (Decrease in Histamine Potency) (histamine H2-receptor; [2]): Active
SMILES: CN(C)Cc1ccc(CSCCNC2=NS(=O)(=O)c3cc([N+](=O)[O-])ccc32)o1 [Example 6]
inhibition in vivo at 1 µmol/kg (gastric acid secretion): 75%

SMILES: CN(C)Cc1ccc(CSCCNC2=NS(=O)(=O)c3c2cccc3[N+](=O)[O-])o1 [Example 7, N-2-(5-dimethylamihomethylfuran-2-ylmethylthioethyl] -7-nitro-1,2-benzoisothizaole-3-amine-1,1-dioxide]
inhibition in vivo at 0.5 µmol/kg (gastric acid secretion): 68%

Activity (Decrease in Histamine Potency) (histamine H2-receptor; Concentration 1 x 10^-5 Molar, 10 µM): Active
SMILES: CN(C)Cc1ccc(CSCCNC2=NS(=O)(=O)c3cc(Cl)ccc32)o1 [Example 8, N-[2-(5-dimethylaminomethylfuran-2-ylmethylthio)ethyl]-6-chloro-1,2benzoisothiazole-3-amine-1,1-dioxide]
inhibition in vivo at 5 µmol/kg (gastric acid secretion; dose 5 µmole/kg): 75%

SMILES: CN(C)Cc1ccc(CSCCNC2=NS(=O)(=O)c3cc(S(=O)(=O)N(C)C)ccc32)o1 [Example 9, N-[2-(5-Dimethylaminomethylfuran-2-ylmethylthio)ethyl] -6-dimethylsulphamoyl-1,2-benzoisothizaole-3-amine-1,1-dioxide]
inhibition in vivo at 0.1 µmol/kg (gastric acid secretion): 89%

Activity (Decrease in Histamine Potency) (histamine H2-receptor; [3]): Active
SMILES: O=S1(=O)N=C(NCCCOc2cccc(CN3CCCCC3)c2)c2ccccc21 [Example 10, N-[3-(3-piperid-1-ylmethylphenoxy)propyl]-1,2-henzoiso-thiazole-3-amine-1,1-dioxide]
inhibition in vivo at 0.5 µmol/kg (gastric acid secretion): 100%

Activity (Decrease in Histamine Potency) (histamine H2-receptor; Concentration 1 x 10^-7 Molar, 0.1 µM): Active
SMILES: O=[N+]([O-])c1cccc2c1C(NCCCOc1cccc(CN3CCCCC3)c1)=NS2(=O)=O [Example 11, N-[3-(3-piperid-1-ylmethylphenoxy)propyl]-4-nitro-1,2-benzoisothiazole-3-amine-1,1-dioxide]
inhibition in vivo at 0.5 µmol/kg (gastric acid secretion): 100%

Activity (Decrease in Histamine Potency) (histamine H2-receptor; Concentration 1 x 10^-6 Molar): Active
SMILES: CN(C)Cc1cccc(OCCCNC2=NS(=O)(=O)c3ccccc32)c1 [Example 12, N-[3-(3-dimethylaminomethylphenoxy)propyl]-1,2-benzoiso-thiazole-3-amine-1,1-dioxide]
inhibition in vivo at 0.5 µmol/kg (gastric acid secretion): 94%

Activity (Decrease in Histamine Potency) (histamine H2-receptor; Concentration 1 x 10^-6 Molar): Active
SMILES: N=C(N)Nc1nc(CSCCNC2=NS(=O)(=O)c3cccc([N+](=O)[O-])c32)cs1 [Example 13, N-[2-(2-guanidinothiazol-4-ylmethylthio)ethyl]-4-nitro-1,2-benzoisothiazole-3-amine-1,1-dioxide]

Activity (Decrease in Histamine Potency) (histamine H2-receptor; [2]): Active
SMILES: CN(C)Cc1ccc(CSCCNC2=NS(=O)(=O)c3cc(N)ccc32)o1 [Example 14, N^3-[2-(5-dimethylaminomethylfuran-2-ylmethylthio)ethyl]-1,2-benzoisothiazole-3,6-diamine-1,1-dioxide]
inhibition in vivo at 0.2 µmol/kg (gastric acid secretion): 60%

SMILES: CN(C)Cc1ccc(CSCCNC2=NS(=O)(=O)c3c(N)cccc32)o1 [Example 15, N^3-[2-(5-dimethylaminomethylfuran-2-lmethylthio)ethyl]-1,2-benzoisothiazole-3,7-diamine-1,1dioxide]
inhibition in vivo at 0.4 µmol/kg (gastric acid secretion; dose 0.4 µmole/kg): 60%

Activity (Decrease in Histamine Potency) (histamine H2-receptor; [1]): Active
SMILES: Nc1cccc2c1C(NCCCOc1cccc(CN3CCCCC3)c1)=NS2(=O)=O [Example 16, N^3-[3-(3-piperid-1-ylmethylphenoxy)propyl]-1,2-benzoiso-thiazole-3,4-diamine-1,1-dioxide]
inhibition in vivo at 0.1 µmol/kg (gastric acid secretion): 100%

Activity (Decrease in Histamine Potency) (histamine H2-receptor; [3]): Active
SMILES: NC(N)=Nc1nc(CSCCNC2=NS(=O)(=O)c3cccc(N)c32)cs1 [Example 20, N^3-[2-('2-guanidinothiazole-4-ylmethylthio)ethyl]-1,2-benzoisothiazole-3,4-diamine-1,1-dixide]
inhibition in vivo at 0.2 µmol/kg (gastric acid secretion): 100%

Activity (Decrease in Histamine Potency) (histamine H2-receptor; Concentration 1 x 10^-6 Molar): Active
SMILES: CN(C)Cc1ccc(CSCCNC2=Nc3ccccc3S(=O)(=O)N2)o1 [Example 39, N-[2-({5-Dimethylaminomethylfuran-2-yl)methylthio)ethyl] 1,2,4-benzothiadiazine-3-amine-1,1-dioxide]
inhibition in vivo at 0.5 µmol/kg (gastric acid secretion): 78%

SMILES: O=S1(=O)NC(NCCCOc2cccc(CN3CCCCC3)c2)=Nc2ccccc21 [Example 40, N-[3-(3-{1-piperidylmethyl}phenoxy)propyl]-1,2,4-benzothia-diazine-3-amine-1,1-dioxide]
inhibition in vivo at 0.5 µmol/kg (gastric acid secretion): 94%
